The target in one data set is T1, BLVRB (Homo sapiens, UniProt P30043).
T1 sequence (P30043 1-206): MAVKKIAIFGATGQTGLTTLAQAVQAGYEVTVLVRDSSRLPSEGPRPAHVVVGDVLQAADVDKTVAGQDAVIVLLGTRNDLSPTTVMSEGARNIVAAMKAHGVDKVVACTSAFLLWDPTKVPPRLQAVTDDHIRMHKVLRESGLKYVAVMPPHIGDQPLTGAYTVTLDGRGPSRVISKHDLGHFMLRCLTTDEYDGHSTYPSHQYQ
Description: NMR titration (HSQC) experiments with 15N-labeled BLVRB. It is filed as binding. To be noted: half-holo BLVRB 0.3 mM, ratio up to 1:10. How it is done: Ratio 1:0, 1:0.6, 1:1, 1:10 [Half-holo form of BLVRB (0.3 mM):phloxine B and erythrosin B].
(§1) The inhibition mechanism of these two compounds was investigated in physiological environment by NMR.
Protein-based NMR spectroscopy is one of the most well-suited methods to identify intermolecular interactions including small molecule and protein interactions. Further, protein-based NMR methods provide information on binding sites, which is of prime interest for optimizing small molecules. Therefore, HSQC experiments of ^15N-labeled BLVRB were performed by titrating increasing amounts of the subject compounds to monitor the chemical shift changes upon the binding of the compounds identified in the enzyme activity assay. In particular, Ser111 was previously identified as a key residue involved in the catalytic mechanism of BLVRB. […] Using the assignment, the chemical shift perturbations (CSPs) of BLVRB by each drug were extracted from the spectra and the binding site of each drug was identified based on the CSPs.
Half-holo form of BLVRB (with NADP^+) was used for NMR experiments. All the subject compounds were dissolved in DMSO-d6. NMR titration and 1D experiments were operated at a ^1H frequency of 800 MHz using a Bruker Avance spectrometer. All experiments were performed at 298 K and 5 mm diameter NMR tubes with a sample volume 500 μL were used.
With `O=C([O-])c1c(Cl)c(Cl)c(Cl)c(Cl)c1-c1c2cc(Br)c(=O)c(Br)c-2oc2c(Br)c([O-])c(Br)cc12.[Na+].[Na+]` [Phloxine B, reference compound], the “multimerization of BLVRB upon addition of compound” value is “induce multimerization of BLVRB”.
Consider `O=C(O)c1ccccc1-c1c2cc(I)c(=O)c(I)c-2oc2c(I)c(O)c(I)cc12` [Erythrosin B, reference compound], for which the “multimerization of BLVRB upon addition of compound” value is on record as “induce multimerization of BLVRB”.

For another data set, the system named is rats.
Test: not given
To be noted: chronic administration; cited from earlier work.
On to `O=C(O)c1ccccc1-c1c2cc(I)c(=O)c(I)c-2oc2c(I)c(O)c(I)cc12` [Erythrosin B, reference compound], for which the thyroid tumor promotion result was “promote thyroid tumors in rats”.

The next data set concerns the target T1, BLVRB. Description: Isothermal titration calorimetry (ITC) of compound binding to BLVRB. The following applies: 25 °C.
As for `O=C(O)c1cccc(-c2noc(-c3ccccc3F)n2)c1` [Compound of formula 4], the TΔS was -1.83 ± 0.09 kcal/mol, the ΔG was -9.13 ± 0.07 kcal/mol and the “ΔH (enthalpy of the reaction)” value was -10.96 ± 0.06 kcal/mol.
Regarding `O=C([O-])c1c(Cl)c(Cl)c(Cl)c(Cl)c1-c1c2cc(Br)c(=O)c(Br)c-2oc2c(Br)c([O-])c(Br)cc12.[Na+].[Na+]` [Phloxine B, reference compound], the TΔS is recorded as 4.12 ± 0.12 kcal/mol, the ΔG is -8.00 ± 0.10 kcal/mol and the “ΔH (enthalpy of the reaction)” value was -3.88 ± 0.06 kcal/mol.
The corresponding values for `O=C(O)c1ccc(-n2nc(-c3ccccc3O)nc2-c2ccccc2O)cc1` [Compound of formula 6] are 0.55 ± 0.12 kcal/mol, -7.87 ± 0.07 kcal/mol and -7.32 ± 0.10 kcal/mol.
In the case of `Cc1nc(-c2ccc(OCC(C)C)c(C#N)c2)sc1C(=O)O` [Compound of formula 5], the TΔS turned out to be 2.14 ± 0.11 kcal/mol, the ΔG is -7.90 ± 0.08 kcal/mol and the “ΔH (enthalpy of the reaction)” value was -5.75 ± 0.08 kcal/mol.
On the same counts, the results for `O=C(O)c1cc(/N=N/c2ccc(S(=O)(=O)Nc3ccccn3)cc2)ccc1O` [Compound of formula 1] are -0.76 ± 0.07 kcal/mol, -8.67 ± 0.05 kcal/mol and -9.43 ± 0.05 kcal/mol.
The corresponding values for `Cc1c(Nc2ncccc2C(=O)O)cccc1C(F)(F)F` [Compound of formula 7] are 0.41 ± 0.07 kcal/mol, -8.95 ± 0.06 kcal/mol and -8.54 ± 0.04 kcal/mol.
Consider `CC1(C)CCC(C)(C)c2cc(NC(=O)c3ccc(C(=O)O)cc3)ccc21` [Compound of formula 3], for which the TΔS was found to be 3.50 ± 0.10 kcal/mol; the “contribution from entropy, of the total binding energy” value is listed as 44%; the ΔG was -7.99 ± 0.08 kcal/mol; the “ΔH (enthalpy of the reaction)” value is -4.49 ± 0.06 kcal/mol.
On the same counts, the results for `O=C(O)c1ccccc1-c1c2cc(I)c(=O)c(I)c-2oc2c(I)c(O)c(I)cc12` [Erythrosin B, reference compound] are 2.91 ± 0.13 kcal/mol, 31%, -9.28 ± 0.11 kcal/mol and -6.38 ± 0.06 kcal/mol.
In the case of `O=C(O)c1cc2ccccc2c(Cc2c(O)c(C(=O)O)cc3ccccc23)c1O` [Compound of formula 8], the TΔS was found to be 1.08 ± 0.17 kcal/mol, the ΔG was -7.84 ± 0.10 kcal/mol and the “ΔH (enthalpy of the reaction)” value is -6.76 ± 0.13 kcal/mol.

The same data set, now with this note: 25 °C, single-site binding model.
Regarding `O=C(O)c1cccc(-c2noc(-c3ccccc3F)n2)c1` [Compound of formula 4], the “N (stoichiometry)” value is 1.02.
The same measure, in the same setting: the result for `O=C([O-])c1c(Cl)c(Cl)c(Cl)c(Cl)c1-c1c2cc(Br)c(=O)c(Br)c-2oc2c(Br)c([O-])c(Br)cc12.[Na+].[Na+]` [Phloxine B, reference compound] reads 0.99; that for `O=C(O)c1ccc(-n2nc(-c3ccccc3O)nc2-c2ccccc2O)cc1` [Compound of formula 6], 1.00; that for `Cc1nc(-c2ccc(OCC(C)C)c(C#N)c2)sc1C(=O)O` [Compound of formula 5], 1.01.
For `O=C(O)c1cc(/N=N/c2ccc(S(=O)(=O)Nc3ccccn3)cc2)ccc1O` [Compound of formula 1], the “N (stoichiometry)” value turned out to be 0.99.
Same read-out and setting: to `Cc1c(Nc2ncccc2C(=O)O)cccc1C(F)(F)F` [Compound of formula 7] belongs 0.99; to `CC1(C)CCC(C)(C)c2cc(NC(=O)c3ccc(C(=O)O)cc3)ccc21` [Compound of formula 3], 1.07; to `O=C(O)c1ccccc1-c1c2cc(I)c(=O)c(I)c-2oc2c(I)c(O)c(I)cc12` [Erythrosin B, reference compound], 1.04.
As to `O=C(O)c1cc2ccccc2c(Cc2c(O)c(C(=O)O)cc3ccccc23)c1O` [Compound of formula 8], the “N (stoichiometry)” value turned out to be 1.01.

Still in this data set, the particulars now being: read-out: KD (dissociation constant), 25 °C.
For `O=C(O)c1cccc(-c2noc(-c3ccccc3F)n2)c1` [Compound of formula 4], the Kd worked out at 0.2 ± 0.02 µM.
For `O=C([O-])c1c(Cl)c(Cl)c(Cl)c(Cl)c1-c1c2cc(Br)c(=O)c(Br)c-2oc2c(Br)c([O-])c(Br)cc12.[Na+].[Na+]` [Phloxine B, reference compound], the Kd worked out at 1.36 ± 0.22 µM.
Turning to `O=C(O)c1ccc(-n2nc(-c3ccccc3O)nc2-c2ccccc2O)cc1` [Compound of formula 6], the Kd is 1.71 ± 0.21 µM.
In the case of `Cc1nc(-c2ccc(OCC(C)C)c(C#N)c2)sc1C(=O)O` [Compound of formula 5], the Kd was found to be 1.63 ± 0.21 µM.
As for `O=C(O)c1cc(/N=N/c2ccc(S(=O)(=O)Nc3ccccn3)cc2)ccc1O` [Compound of formula 1], the Kd was determined as 0.44 ± 0.04 µM.
`Cc1c(Nc2ncccc2C(=O)O)cccc1C(F)(F)F` [Compound of formula 7]: the dissociation constant Kd turned out to be 0.27 ± 0.03 µM.
On to `CC1(C)CCC(C)(C)c2cc(NC(=O)c3ccc(C(=O)O)cc3)ccc21` [Compound of formula 3], for which the Kd came out at 1.38 ± 0.18 µM.
With `O=C(O)c1ccccc1-c1c2cc(I)c(=O)c(I)c-2oc2c(I)c(O)c(I)cc12` [Erythrosin B, reference compound], the Kd came to 0.16 ± 0.03 µM.
On to `O=C(O)c1cc2ccccc2c(Cc2c(O)c(C(=O)O)cc3ccccc23)c1O` [Compound of formula 8], for which the Kd was 1.8 ± 0.31 µM.

Another data set deals with T1, BLVRB. Description: Dynamic light scattering (DLS) of BLVRB with inhibitor. The following applies: molar ratio 0, 1, 5, 10 compound/BLVRB.
From the text: FIGS. 2A and 2B show DLS results of BLVRB depending on the concentration of phloxine B (FIG. 2A) and erythorosin B (FIG. 2B). Molar ratio of the sample is 0, 1, 5, 10 [erythrosin B or phloxine B/BLVRB]. The horizontal axis represents the diameter of each drug on a logarithmic scale. The vertical axis represents the relative intensity of the signal.
as §1
For `O=C([O-])c1c(Cl)c(Cl)c(Cl)c(Cl)c1-c1c2cc(Br)c(=O)c(Br)c-2oc2c(Br)c([O-])c(Br)cc12.[Na+].[Na+]` [Phloxine B, reference compound], the “size of BLVRB-inhibitor complex” value is “increase in the size of the BLVRB-inhibitor complex”.
On the same count and under the same terms, the result for `O=C(O)c1ccccc1-c1c2cc(I)c(=O)c(I)c-2oc2c(I)c(O)c(I)cc12` [Erythrosin B, reference compound] reads “increase in the size of the BLVRB-inhibitor complex”.

(Values after US11744839B2, “Method of increasing platelet counts of a subject” (KOREA BASIC SCIENCE INSTITUTE, priority 2021, dated 2023).)
